Test results from paper PMC6385203, “Mutations in the palm domain disrupt modulation of acid-sensing ion channel 1a currents by neuropeptides” (Scientific Reports, 2019).
Peptide text beside a SMILES is read from it.

Molecular target: T1, WT ASIC1a (Homo sapiens, UniProt P78348)
T1 construct: expressed in transfected cells; host or cells: Xenopus laevis oocytes injected with cRNA
T1 sequence (P78348 1-528 G212D): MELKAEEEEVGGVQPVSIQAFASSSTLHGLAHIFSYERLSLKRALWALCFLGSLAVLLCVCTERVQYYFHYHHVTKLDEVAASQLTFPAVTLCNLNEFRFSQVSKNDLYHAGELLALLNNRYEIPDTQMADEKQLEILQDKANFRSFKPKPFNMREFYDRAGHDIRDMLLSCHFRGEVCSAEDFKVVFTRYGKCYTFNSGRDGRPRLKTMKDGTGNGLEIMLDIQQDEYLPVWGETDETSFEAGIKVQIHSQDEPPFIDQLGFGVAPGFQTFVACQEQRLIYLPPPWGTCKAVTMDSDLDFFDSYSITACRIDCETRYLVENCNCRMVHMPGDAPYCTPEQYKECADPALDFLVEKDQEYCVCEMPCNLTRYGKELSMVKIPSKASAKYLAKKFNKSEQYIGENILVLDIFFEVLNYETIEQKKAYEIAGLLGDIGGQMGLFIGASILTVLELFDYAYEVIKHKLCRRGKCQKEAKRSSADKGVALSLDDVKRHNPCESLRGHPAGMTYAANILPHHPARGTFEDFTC
Experiment: Disappearance of FRRFa-induced Isust on washout, WT
Type: cell-based
Conditions: WT in direct comparison with N416C; washout after 50 μM FRRFa 45 s; n = 4
Experimental: ASIC1a function was measured by two-electrode voltage-clamp after recombinant expression in Xenopus oocytes. The channels were activated by a pH5 stimulation solution from a conditioning solution of pH7.4. […] We measured the rate of FRRFa unbinding, as the disappearance of the sustained current after a 50-s incubation with 50 μM FRRFa, as 0.025 ± 0.005 s^−1 (n = 8, Fig. 2b). […] To determine the kinetics of FRRFa association on ASIC1a, we pre-applied the peptide at a concentration of 50 μM for different time periods in the conditioning solution and measured the sustained current fraction.
Figure 2 FRRFa modulation of ASIC1a currents is only partially affected by acidic pocket mutations. (a) FRRFa concentration-response curve. Top, representative current traces. Bottom, Isust/Ipeak ratio induced by pH5 as a function of the FRRFa concentration (pre-applied during 45–50 s and present in pH5 solution), n = 7–11. (b) Time course of disappearance of the FRRFa-induced Isust. FRRFa at 50 μM was applied for 45 s, and current was measured once every minute during washout with FRRFa-free solution. Exponential fit shown as solid line (n = 4, error bars are smaller than the symbols). (c) Time course of appearance of Isust. Oocytes were exposed for various durations to 50 μM FRRFa in the pH7.4 conditioning solution, before activation of ASIC currents with pH5, including 50 μM FRRFa. […]

`N=C(N)NCCC[C@H](NC(=O)[C@H](CCCNC(=N)N)NC(=O)[C@@H](N)Cc1ccccc1)C(=O)N[C@@H](Cc1ccccc1)C(N)=O` [FRRFa, Phe-Arg-Arg-Phe-amide] (H-FRRF-NH2) was tested, and the koff was 0.029 ± 0.011 s⁻¹.
